Test results taken from ChEMBL document CHEMBL1130114 (J Med Chem, 1997).

Legend:
Experiment in all cases: biochemical
Adenosine receptor A2a [1] = target: Adenosine receptor A2a (Homo sapiens, UniProt P29274, V84L)
Adenosine receptor A2a [2] = target: Adenosine receptor A2a (Homo sapiens, UniProt P29274, H250N)
Adenosine receptor A2a [3] = target: Adenosine receptor A2a (Homo sapiens, UniProt P29274)
Chain of Adenosine receptor A2a (Homo sapiens, UniProt P29274) (P29274 whole entry): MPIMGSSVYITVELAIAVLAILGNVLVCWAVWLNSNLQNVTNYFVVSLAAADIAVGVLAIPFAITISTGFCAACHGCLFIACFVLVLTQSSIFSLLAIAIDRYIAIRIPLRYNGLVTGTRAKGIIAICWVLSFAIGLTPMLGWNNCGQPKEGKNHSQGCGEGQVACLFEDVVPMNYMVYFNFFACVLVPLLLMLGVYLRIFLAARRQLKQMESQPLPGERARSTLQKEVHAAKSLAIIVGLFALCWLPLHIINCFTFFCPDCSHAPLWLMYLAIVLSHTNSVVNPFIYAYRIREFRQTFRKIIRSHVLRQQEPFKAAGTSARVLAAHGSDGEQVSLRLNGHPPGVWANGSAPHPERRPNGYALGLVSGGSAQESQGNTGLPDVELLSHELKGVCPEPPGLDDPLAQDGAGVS
Description: Binding affinity for HA-tagged wild type human Adenosine A2A receptor (WT) using [3H]CGS-21680 as radioligand expressed in COS-7 cells

Chain of Adenosine receptor A2a (Homo sapiens, UniProt P29274, H250N) (P29274 whole entry H250N): as the sequence (P29274 whole entry) above, with H250N counted along it
Chain of Adenosine receptor A2a (Homo sapiens, UniProt P29274, V84L) (P29274 whole entry V84L): as the sequence (P29274 whole entry) above, with V84L counted along it

SMILES | Ki (Adenosine receptor A2a [1]) [µM] | Ki (Adenosine receptor A2a [2]) [µM] | Ki (Adenosine receptor A2a [3]) [µM]
COC(=O)C1=C(C)NC(C)=C(C(=O)OC)C1c1ccccc1[N+](=O)[O-] [NIFEDIPINE] | 22.2 | 22.2 | 244
COc1cc(OC)cc(C(CNc2ncnc3c2ncn3[C@@H]2O[C@H](CO)[C@@H](O)[C@H]2O)c2ccccc2C)c1 (stereo not given in full) | 0.0189 | 0.0359 | 0.0381
N=C(N)NC(=O)c1nc(Cl)c(N)nc1N [AMILORIDE] | 11.6 | 3.28 | 12

The next lines start with the values.

Ki (Adenosine receptor A2a [1]) [µM] | Ki (Adenosine receptor A2a [2]) [µM] | Ki (Adenosine receptor A2a [3]) [µM] | SMILES
18.1 | 33 | 16.7 | O=c1c(O)c(-c2ccccc2)oc2cc(O)cc(O)c12 [GALANGIN]
72.6 | 54.3 | 106 | CCOC(=O)c1sc(SCc2ccccc2)c2c1CCCC2=O
